The test concerns the target T1, human full-length MKNK1 (Homo sapiens, UniProt Q9BUB5, T385D).
T1 construct: GST (N); purchased Carna Biosciences 02-145; host or cells: insect cells (baculovirus expression system)
Kind of test: MKNK1 kinase high ATP assay (TR-FRET). It counts as biochemical. The settings on record: high ATP (2 mM final), 15 min preincubation with enzyme, GST-MKNK1 (T344D). On the procedure: MKNK1-inhibitory activity at high ATP of compounds of the present invention after their preincubation with MKNK1 was quantified employing the TR-FRET-based MKNK1 high ATP assay as described in the following paragraphs.
A recombinant fusion protein of Glutathione-S-Transferase (GST, N-terminally) and human full-length MKNK1 (amino acids 1-424 and T344D of accession number BAA 19885.1), expressed in insect cells using baculovirus expression system and purified via glutathione sepharose affinity chromatography, was purchased from Carna Biosciences (product no 02-145) and used as enzyme. As substrate for the kinase reaction the biotinylated peptide biotin-Ahx-IKKRKLTRRKSLKG (C-terminus in amide form) was used, which can be purchased e.g. from the company Biosyntan (Berlin-Buch, Germany).
For the assay 50 nL of a 100fold concentrated solution of the test compound in DMSO was pipetted into a black low volume 384well microtiter plate (Greiner Bio-One, Frickenhausen, Germany), 2 μL of a solution of MKNK1 in aqueous assay buffer [50 mM HEPES pH 7.5, 5 mM MgCl2, 1.0 mM dithiothreitol, 0.005% (v/v) Nonidet-P40 (Sigma)] was added and the mixture was incubated for 15 min at 22° C. to allow pre-binding of the test compounds to the enzyme before the start of the kinase reaction. Then the kinase reaction was started by the addition of 3 μL of a solution of adenosine-tri-phosphate (ATP, 3.3 mM=>final conc. in the 5 μL assay volume is 2 mM) and substrate (0.1 μM=>final conc. in the 5 μL assay volume is 0.06 μM) in assay buffer and the resulting mixture was incubated for a reaction time of 30 min at 22° C. The concentration of MKNK1 was adjusted depending of the activity of the enzyme lot and was chosen appropriate to have the assay in the linear range, typical concentrations were in the range of 0.003 μg/mL. The reaction was stopped by the addition of 5 μL of a solution of TR-FRET detection reagents (5 nM streptavidine-XL665 [Cisbio Bioassays, Codolet, France] and 1 nM anti-ribosomal protein S6 (pSer236)-antibody from Invitrogen [#44921G] and 1 nM LANCE EU-W1024 labeled ProteinG [Perkin-Elmer, product no. AD0071]) in an aqueous EDTA-solution (100 mM EDTA, 0.1% (w/v) bovine serum albumin in 50 mM HEPES pH 7.5).
The resulting mixture was incubated for 1 h at 22° C. to allow the formation of complex between the phosphorylated biotinylated peptide and the detection reagents. Subsequently the amount of phosphorylated substrate was evaluated by measurement of the resonance energy transfer from the Eu-chelate to the streptavidine-XL. Therefore, the fluorescence emissions at 620 nm and 665 nm after excitation at 350 nm were measured in a TR-FRET reader, e.g. a Rubystar (BMG Labtechnologies, Offenburg, Germany) or a Viewlux (Perkin-Elmer). The ratio of the emissions at 665 nm and at […] was taken as the measure for the amount of phosphorylated substrate. The data were normalised (enzyme reaction without inhibitor=0% inhibition, all other assay components but no enzyme=100% inhibition).
Background: In TR-FRET formats the signal depends on donor and acceptor labels being close together.

T1 sequence (Q9BUB5 1-424 isoform Q9BUB5-2 T344D): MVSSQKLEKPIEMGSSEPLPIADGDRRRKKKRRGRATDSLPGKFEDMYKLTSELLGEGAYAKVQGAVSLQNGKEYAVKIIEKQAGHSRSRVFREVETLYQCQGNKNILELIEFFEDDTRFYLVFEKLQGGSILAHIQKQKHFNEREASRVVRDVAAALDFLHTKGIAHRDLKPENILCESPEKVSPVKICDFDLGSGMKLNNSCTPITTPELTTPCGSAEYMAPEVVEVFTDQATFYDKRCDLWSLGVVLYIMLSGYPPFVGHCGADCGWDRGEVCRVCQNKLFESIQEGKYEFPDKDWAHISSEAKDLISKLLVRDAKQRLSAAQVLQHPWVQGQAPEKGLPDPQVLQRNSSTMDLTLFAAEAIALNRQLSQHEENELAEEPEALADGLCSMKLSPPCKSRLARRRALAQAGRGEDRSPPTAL

The compound `CN(C)C(=O)N1CCc2c(sc3ncnc(Nc4cc5cn[nH]c5cc4Cl)c23)C1` [Example 27, 4-[(6-Chloro-1H-indazol-5-yl)amino]-N,N-dimethyl-5,8-dihydropyrido[4′,3′:4,5]thieno[2,3-d]pyrimidine-7(6H)-carboxamide] returned an IC50 of 25 nM.
As for `CN(C)C(=O)N1CCc2c(sc3ncnc(Nc4cc5cn[nH]c5cc4Br)c23)C1` [Example 29, 4-[(6-Bromo-1H-indazol-5-yl)amino]-N,N-dimethyl-5,8-dihydropyrido[4′,3′:4,5]thieno[2,3-d]pyrimidine-7(6H)-carboxamide], the figure is 37 nM.
As for `CN(C)C(=O)N1CCc2c(sc3ncnc(Nc4ccn5nccc5c4)c23)C1` [Example 30, N,N-Dimethyl-4-(pyrazolo[1,5-a]pyridin-5-ylamino)-5,8-dihydropyrido[4′,3′:4,5]thieno[2,3-d]pyrimidine-7(6H)-carboxamide], the 50% inhibitory concentration (IC50) was 484 nM.
Turning to `C[C@@H]1CN(C(=O)N2CCc3c(sc4ncnc(Nc5ccc6[nH]c(=O)sc6c5)c34)C2)C[C@H](C)O1` [Example 31, 6-[(7-{[(2R,6S)-2,6-Dimethylmorpholin-4-yl]carbonyl}-5,6,7,8-tetrahydropyrido[4′,3′:4,5]thieno[2,3-d]pyrimidin-4-yl)amino]-1,3-benzothiazol-2(3H)-one], the IC50 worked out at 59 nM.
`COc1cc2[nH]ncc2cc1Nc1ncnc2sc3c(c12)CCN(C(=O)N1C[C@@H](C)O[C@@H](C)C1)C3` [Example 32, [(2R,6S)-2,6-Dimethylmorpholin-4-yl]{4-[(6-methoxy-1H-indazol-5-yl)amino]-5,8-dihydropyrido[4′,3′:4,5]thieno[2,3-d]pyrimidin-7(6H)-yl}methanone] showed an IC50 of 10 nM. Against the preceding compound, the IC50 is about 5.9-fold lower.
In the case of `C[C@@H]1CN(C(=O)N2CCc3c(sc4ncnc(Nc5ccc6[nH]ncc6c5)c34)C2)C[C@H](C)O1` [Example 33, [(2R,6S)-2,6-Dimethylmorpholin-4-yl][4-(1H-indazol-5-ylamino)-5,8-dihydropyrido[4′,3′:4,5]thieno[2,3-d]pyrimidin-7(6H)-yl]methanone] it was 21 nM; in that of `C[C@@H]1CN(C(=O)N2CCc3c(sc4ncnc(Nc5cc6cn[nH]c6cn5)c34)C2)C[C@H](C)O1` [Example 34, [(2R,6S)-2,6-Dimethylmorpholin-4-yl][4-(1H-pyrazolo[3,4-c]pyridin-5-ylamino)-5,8-dihydropyrido[4′,3′:4,5]thieno[2,3-d]pyrimidin-7(6H)-yl]methanone], 70 nM.
In the case of `C[C@@H]1CN(C(=O)N2CCc3c(sc4ncnc(Nc5cnc6[nH]ncc6c5)c34)C2)C[C@H](C)O1` [Example 35, [(2R,6S)-2,6-Dimethylmorpholin-4-yl][4-(1H-pyrazolo[3,4-b]pyridin-5-ylamino)-5,8-dihydropyrido[4′,3′:4,5]thieno[2,3-d]pyrimidin-7(6H)-yl]methanone] it was 27 nM.
As for `CS(=O)(=O)N1CCc2c(sc3ncnc(Nc4ccn5nccc5c4)c23)C1` [Example 36, 7-(Methylsulfonyl)-N-(pyrazolo[1,5-a]pyridin-5-yl)-5,6,7,8-tetrahydropyrido[4′,3′:4,5]thieno[2,3-d]pyrimidin-4-amine], the figure is 157 nM.
Regarding `COc1cc2[nH]ncc2cc1Nc1ncnc2sc3c(c12)CCN(S(C)(=O)=O)C3` [Example 37, N-(6-Methoxy-1H-indazol-5-yl)-7-(methylsulfonyl)-5,6,7,8-tetrahydropyrido[4′,3′:4,5]thieno[2,3-d]pyrimidin-4-amine], half-maximal inhibition (IC50) was put at 3 nM.
For `CS(=O)(=O)N1CCc2c(sc3ncnc(Nc4ccc5[nH]ncc5c4)c23)C1` [Example 38, N-(1H-Indazol-5-yl)-7-(methylsulfonyl)-5,6,7,8-tetrahydropyrido[4′,3′:4,5]thieno[2,3-d]pyrimidin-4-amine], the half-maximal inhibitory concentration (IC50) was found to be 68 nM.
In the case of `CS(=O)(=O)N1CCc2c(sc3ncnc(Nc4ccc5[nH]c(=O)sc5c4)c23)C1` [Example 39, 6-{[7-(Methylsulfonyl)-5,6,7,8-tetrahydropyrido[4′,3′:4,5]thieno[2,3-d]pyrimidin-4-yl]amino}-1,3-benzothiazol-2(3H)-one] it was 316 nM.
Turning to `CS(=O)(=O)N1CCc2c(sc3ncnc(Nc4cnc5[nH]ncc5c4)c23)C1` [Example 40, 7-(Methylsulfonyl)-N-(1H-pyrazolo[3,4-b]pyridin-5-yl)-5,6,7,8-tetrahydropyrido[4′,3′:4,5]thieno[2,3-d]pyrimidin-4-amine], the 50% inhibitory concentration (IC50) turned out to be 139 nM.
As for `O=C(N1CCOCC1)N1CCc2c(sc3ncnc(Nc4ccc5[nH]c(=O)sc5c4)c23)C1` [Example 41, 6-{[7-(Morpholin-4-ylcarbonyl)-5,6,7,8-tetrahydropyrido[4′,3′:4,5]thieno[2,3-d]pyrimidin-4-yl]amino}-1,3-benzothiazol-2(3H)-one], the figure is 216 nM; as for `COc1cc2[nH]ncc2cc1Nc1ncnc2sc3c(c12)CCN(C(=O)N1CCOCC1)C3` [Example 42, {4-[(6-Methoxy-1H-indazol-5-yl)amino]-5,8-dihydropyrido[4′,3′:4,5]thieno[2,3-d]pyrimidin-7(6H)-yl}(morpholin-4-yl)methanone], 22 nM.
As for `O=C(N1CCOCC1)N1CCc2c(sc3ncnc(Nc4ccc5[nH]ncc5c4)c23)C1` [Example 43, [4-(1H-Indazol-5-ylamino)-5,8-dihydropyrido[4′,3′:4,5]thieno[2,3-d]pyrimidin-7(6H)-yl](morpholin-4-yl)methanone], the figure is 48 nM; as for `O=C(N1CCOCC1)N1CCc2c(sc3ncnc(Nc4cnc5[nH]ncc5c4)c23)C1` [Example 44, Morpholin-4-yl[4-(1H-pyrazolo[3,4-b]pyridin-5-ylamino)-5,8-dihydropyrido[4′,3′:4,5]thieno[2,3-d]pyrimidin-7(6H)-yl]methanone], 118 nM; as for `COc1nc2[nH]ncc2cc1Nc1ncnc2sc3c(c12)CCNC3` [Example 45, N-(6-Methoxy-1H-pyrazolo[3,4-b]pyridin-5-yl)-5,6,7,8-tetrahydropyrido[4′,3′:4,5]thieno[2,3-d]pyrimidin-4-amine], 87 nM.
In the case of `CSc1cc2[nH]ncc2cc1Nc1ncnc2sc3c(c12)CCN(C(=O)N(C)C)C3` [Example 46, N,N-Dimethyl-4-{[6-(methylsulfanyl)-1H-indazol-5-yl]amino}-5,8-dihydropyrido[4′,3′:4,5]thieno[2,3-d]pyrimidine-7(6H)-carboxamide] it was 87 nM.
`CSc1cc2[nH]ncc2cc1Nc1ncnc2sc3c(c12)CCN(C(=O)N1CCOCC1)C3` [Example 47, [4-{[6-(Methylsulfanyl)-1H-indazol-5-yl]amino}-5,8-dihydropyrido[4′,3′:4,5]thieno[2,3-d]pyrimidin-7(6H)-yl](morpholin-4-yl)methanone]: 61 nM corresponded to half-maximal inhibition (IC50).
In the case of `CSc1cc2[nH]ncc2cc1Nc1ncnc2sc3c(c12)CCN(S(C)(=O)=O)C3` [Example 48, N-[6-(Methylsulfanyl)-1H-indazol-5-yl]-7-(methylsulfonyl)-5,6,7,8-tetrahydropyrido[4′,3′:4,5]thieno[2,3-d]pyrimidin-4-amine] it was 27 nM; in that of `CS(=O)(=O)N1CCc2c(sc3ncnc(Nc4cc5cn[nH]c5cc4Cl)c23)C1` [Example 49, N-(6-Chloro-1H-indazol-5-yl)-7-(methylsulfonyl)-5,6,7,8-tetrahydropyrido[4′,3′:4,5]thieno[2,3-d]pyrimidin-4-amine], 125 nM; in that of `COc1nc2[nH]ncc2cc1Nc1ncnc2sc3c(c12)CCN(S(C)(=O)=O)C3` [Example 50, N-(6-Methoxy-1H-pyrazolo[3,4-b]pyridin-5-yl)-7-(methylsulfonyl)-5,6,7,8-tetrahydropyrido[4′,3′:4,5]thieno[2,3-d]pyrimidin-4-amine], 40 nM.
As for `O=C(N1CCOCC1)N1CCc2c(sc3ncnc(Nc4cc5cn[nH]c5cc4Cl)c23)C1` [Example 51, {4-[(6-Chloro-1H-indazol-5-yl)amino]-5,8-dihydropyrido[4′,3′:4,5]thieno[2,3-d]pyrimidin-7(6H)-yl}(morpholin-4-yl)methanone], the figure is 57 nM.

The term IC50 denotes the concentration that gives 50% inhibition. Read a high IC50 as weaker potency in that assay.
